By inhibition is commonly meant the change of the read-out against control, counted positive when it falls.

In the test the target is T1, human vasopressin V1a receptor subtype (Homo sapiens, UniProt P37288).
T1 construct: host or cells: CHO cells (pZeoSV vector for the Thibonnier line)
Kind of test: Vasopressin binding in Chinese Hamster Ovary cell membranes expressing human vasopressin V1a subtype receptors. Conditions: 100 nM, CHO cell membranes, [3H]Manning ligand, values without parentheses. Summed up: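 Membranes from CHO cells expressing human V1a receptor were incubated with [3H]Manning ligand (added as 20 μL of 8 nM) in pH 7.4 Tris buffer with MgCl2, BSA and protease inhibitors, 60 min at room temperature. Bound radioactivity was counted after filtration; values are percent inhibition at a stated concentration or IC50.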

Structures are written as SMILES.

T1 sequence (P37288 whole entry): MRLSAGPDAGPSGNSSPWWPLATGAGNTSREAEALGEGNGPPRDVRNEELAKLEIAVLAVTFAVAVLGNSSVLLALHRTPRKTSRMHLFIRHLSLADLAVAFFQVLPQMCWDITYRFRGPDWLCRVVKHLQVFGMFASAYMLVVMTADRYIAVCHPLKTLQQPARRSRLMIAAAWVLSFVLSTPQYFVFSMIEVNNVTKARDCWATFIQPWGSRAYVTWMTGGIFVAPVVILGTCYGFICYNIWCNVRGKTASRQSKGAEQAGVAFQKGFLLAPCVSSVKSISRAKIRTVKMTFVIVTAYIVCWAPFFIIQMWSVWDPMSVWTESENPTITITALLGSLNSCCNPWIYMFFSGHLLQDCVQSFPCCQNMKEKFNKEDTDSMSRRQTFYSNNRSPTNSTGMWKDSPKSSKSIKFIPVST

Regarding `CCOc1ccccc1-c1cc(OC)c(C(=O)N2Cc3cccn3Cc3ccccc32)cc1Cl` [Example 17, 10-{[6-Chloro-3-methoxy-2′-ethoxy[1,1′-biphenyl]-4-yl]carbonyl}-10,11-dihydro-5H-pyrrolo[2,1-c][1,4]benzodiazepine], the inhibition at 0.1 µM is -11%.

In the case of `COc1cc(C(=O)N2Cc3cccn3Cc3ccccc32)ccc1-c1ccccc1C(F)(F)F` [Example 19D, (10,11-Dihydro-5H-pyrrolo[2,1-c][1,4]benzodiazepin-10-yl)-(2-methoxy-2′-trifluoromethyl-[1,1′-biphenyl]-4-yl)-methanone], the inhibition at 0.1 µM turned out to be 51%.

Take `O=C(c1ccc(-c2ccccc2)nc1)N1Cc2cccn2Cc2ccccc21` [Example 29, (6-Phenyl-pyridin-3-yl)-[10,11-dihydro-5H-pyrrolo[2,1-c][1,4]benzodiazepin-10-yl]methanone]: the inhibition at 0.1 µM amounted to 74%.

In the case of `Cc1cc(C(=O)N2Cc3cccn3Cc3ccccc32)cc(C)c1-n1c(C)ccc1C` [Example 30, [4-(2,5-Dimethyl-1H-pyrrol-1-yl)-3,5-dimethyl-phenyl][10,11-dihydro-5H-pyrrolo[2,1-c][1,4]benzodiazepin-10-yl]methanone], the inhibition at 0.1 µM was determined as 8%.

Consider `Cc1cc(C(=O)N2Cc3cccn3Cc3ccccc32)ccc1-c1ccncc1` [Example 31, [3-Methyl-4-(4-pyridinyl)phenyl]-[10,11-dihydro-5H-pyrrolo[2,1-c][1,4]benzodiazepin-10-yl]methanone], for which the inhibition at 0.1 µM turned out to be 30%.

Consider `COc1ccccc1-c1ccc(C(=O)N2Cc3ccc(C(=O)N4CCN(C)CC4)n3Cc3ccccc32)cc1C` [Example 49, {10-[(2′-Methoxy-2-methyl[1,1′-biphenyl]-4-yl)carbonyl]-10,11-dihydro-5H-pyrrolo[2,1-c][1,4]benzodiazepin-3-yl}(4-methyl-1-piperazinyl)methanone], for which the inhibition at 0.1 µM is 5%.

For `Cc1ccccc1-c1ccc(C(=O)N2Cc3ccc(C(=O)N4CCN(C)CC4)n3Cc3ccccc32)cc1C` [Example 50, {10-[(2,2′-Dimethyl[1,1′-biphenyl]-4-yl)carbonyl]-10,11-dihydro-5H-pyrrolo[2,1-c][1,4]benzodiazepin-3-yl}(4-methyl-1-piperazinyl)methanone], the inhibition at 0.1 µM stood at 40%.

As to `COc1cccc(-c2ccc(C(=O)N3Cc4ccc(C(=O)N5CCN(C)CC5)n4Cc4ccccc43)cc2C)c1` [Example 51, {10-[(3′-Methoxy-2-methyl[1,1′-biphenyl]-4-yl)carbonyl]-10,11-dihydro-5H-pyrrolo[2,1-c][1,4]benzodiazepin-3-yl}(4-methyl-1-piperazinyl)methanone], the inhibition at 0.1 µM amounted to 14%.

`Cc1ccccc1-c1ccc(C(=O)N2Cc3ccc(C(=O)N4CCN(C)CC4)n3Cc3ccccc32)cc1` [Example 52, {10-[(2′-Methyl[1,1′-biphenyl]-4-yl)carbonyl]-10,11-dihydro-5H-pyrrolo[2,1-c][1,4]benzodiazepin-3-yl}(4-methyl-1-piperazinyl)methanone]: the inhibition at 0.1 µM worked out at 54%.

On to `COc1cc(C(=O)N2Cc3ccc(C(=O)N4CCN(C)CC4)n3Cc3ccccc32)ccc1-c1ccccc1C` [Example 53, {10-[(2-Methoxy-2′-methyl[1,1′-biphenyl]-4-yl)carbonyl]-10,11-dihydro-5H-pyrrolo[2,1-c][1,4]benzodiazepin-3-yl}(4-methyl-1-piperazinyl)methanone], for which the inhibition at 0.1 µM worked out at 38%.

On to `COc1cccc(-c2cc(OC)c(C(=O)N3Cc4ccc(C(=O)N5CCN(C)CC5)n4Cc4ccccc43)cc2Cl)c1` [Example 54, {10-[(6-Chloro-3,3′-dimethoxy[1,1′-biphenyl]-4-yl)carbonyl]-10,11-dihydro-5H-pyrrolo[2,1-c][1,4]benzodiazepin-3-yl}(4-methyl-1-piperazinyl)methanone], for which the inhibition at 0.1 µM was -4%.

As for `COc1cc(C(=O)N2Cc3ccc(C(=O)N4CCN(C)CC4)n3Cc3ccccc32)ccc1-c1cccc2ccccc12` [Example 55, {10-[3-Methoxy-4-(1-naphthyl)benzoyl]-10,11-dihydro-5H-pyrrolo[2,1-c][1,4]benzodiazepin-3-yl}(4-methyl-1-piperazinyl)methanone], the inhibition at 0.1 µM was found to be 4%.

As to `COc1ccccc1-c1ccc(C(=O)N2Cc3ccc(C(=O)N4CCN(C)CC4)n3Cc3ccccc32)cc1OC` [Example 56, {10-[(2,2′-Dimethoxy[1,1′-biphenyl]-4-yl)carbonyl]-10,11-dihydro-5H-pyrrolo[2,1-c][1,4]benzodiazepin-3-yl}(4-methyl-1-piperazinyl)methanone], the inhibition at 0.1 µM turned out to be 2%.

With `COc1cccc(-c2ccc(C(=O)N3Cc4ccc(C(=O)N5CCN(C)CC5)n4Cc4ccccc43)cc2OC)c1` [Example 57, {10-[(2,3′-Dimethoxy[1,1′-biphenyl]-4-yl)carbonyl]-10,11-dihydro-5H-pyrrolo[2,1-c][1,4]benzodiazepin-3-yl}(4-methyl-1-piperazinyl)methanone], the inhibition at 0.1 µM was determined as 15%.

In the case of `CN1CCN(C(=O)c2ccc3n2Cc2ccccc2N(C(=O)c2ccc(-c4cccc5ccccc45)cc2Cl)C3)CC1` [Example 58, {10-[2-Chloro-4-(1-naphthyl)benzoyl]-10,11-dihydro-5H-pyrrolo[2,1-c][1,4]benzodiazepin-3-yl}(4-methyl-1-piperazinyl)methanone], the inhibition at 0.1 µM was 5%.

For the molecule `COc1ccccc1-c1ccc(C(=O)N2Cc3ccc(C(=O)N4CCCN(C)CC4)n3Cc3ccccc32)cc1C` [Example 62, {10-[(2′-Methoxy-2-methyl[1,1′-biphenyl]-4-yl)carbonyl]-10,11-dihydro-5H-pyrrolo[2,1-c][1,4]benzodiazepin-3-yl}(4-methyl-1,4-diazepan-1-yl)methanone], the inhibition at 0.1 µM was determined as 10%.

Turning to `Cc1ccccc1-c1ccc(C(=O)N2Cc3ccc(C(=O)N4CCCN(C)CC4)n3Cc3ccccc32)cc1C` [Example 63, {10-[(2,2′-Dimethyl[1,1′-biphenyl]-4-yl)carbonyl]-10,11-dihydro-5H-pyrrolo[2,1-c][1,4]benzodiazepin-3-yl}(4-methyl-1,4-diazepan-1-yl)methanone], the inhibition at 0.1 µM is 57%.

As for `COc1cccc(-c2ccc(C(=O)N3Cc4ccc(C(=O)N5CCCN(C)CC5)n4Cc4ccccc43)cc2C)c1` [Example 64, {10-[(3′-Methoxy-2-methyl[1,1′-biphenyl]-4-yl)carbonyl]-10,11-dihydro-5H-pyrrolo[2,1-c][1,4]benzodiazepin-3-yl}(4-methyl-1,4-diazepan-1-yl)methanone], the inhibition at 0.1 µM came to 13%.

As for `Cc1ccccc1-c1ccc(C(=O)N2Cc3ccc(C(=O)N4CCCN(C)CC4)n3Cc3ccccc32)cc1` [Example 65, {10-[(2′-Methyl[1,1′-biphenyl]-4-yl)carbonyl]-10,11-dihydro-5H-pyrrolo[2,1-c][1,4]benzodiazepin-3-yl}(4-methyl-1,4-diazepan-1-yl)methanone], the inhibition at 0.1 µM came to 40%.

Take `COc1cc(C(=O)N2Cc3ccc(C(=O)N4CCCN(C)CC4)n3Cc3ccccc32)ccc1-c1ccccc1C` [Example 66, {10-[(2-Methoxy-2′-methyl[1,1′-biphenyl]-4-yl)carbonyl]-10,11-dihydro-5H-pyrrolo[2,1-c][1,4]benzodiazepin-3-yl}(4-methyl-1,4-diazepan-1-yl)methanone]: the inhibition at 0.1 µM was 52%.

For `COc1cccc(-c2cc(OC)c(C(=O)N3Cc4ccc(C(=O)N5CCCN(C)CC5)n4Cc4ccccc43)cc2Cl)c1` [Example 67, {10-[(6-Chloro-3,3′-dimethoxy[1,1′-biphenyl]-4-yl)carbonyl]-10,11-dihydro-5H-pyrrolo[2,1-c][1,4]benzodiazepin-3-yl}(4-methyl-1,4-diazepan-1-yl)methanone], the inhibition at 0.1 µM was -4%.

As for `COc1cc(C(=O)N2Cc3ccc(C(=O)N4CCCN(C)CC4)n3Cc3ccccc32)ccc1-c1cccc2ccccc12` [Example 68, {10-[3-Methoxy-4-(1-naphthyl)benzoyl]-10,11-dihydro-5H-pyrrolo[2,1-c][1,4]benzodiazepin-3-yl}(4-methyl-1,4-diazepan-1-yl)methanone], the inhibition at 0.1 µM was 9%.

With `COc1ccccc1-c1ccc(C(=O)N2Cc3ccc(C(=O)N4CCCN(C)CC4)n3Cc3ccccc32)cc1OC` [Example 69, {10-[(2,2′-Dimethoxy[1,1′-biphenyl]-4-yl)carbonyl]-10,11-dihydro-5H-pyrrolo[2,1-c][1,4]benzodiazepin-3-yl}(4-methyl-1,4-diazepan-1-yl)methanone], the inhibition at 0.1 µM stood at 8%.

In the case of `COc1cccc(-c2ccc(C(=O)N3Cc4ccc(C(=O)N5CCCN(C)CC5)n4Cc4ccccc43)cc2OC)c1` [Example 70, {10-[(2,3′-Dimethoxy[1,1′-biphenyl]-4-yl)carbonyl]-10,11-dihydro-5H-pyrrolo[2,1-c][1,4]benzodiazepin-3-yl}(4-methyl-1,4-diazepan-1-yl)methanone], the inhibition at 0.1 µM came to 19%.

Take `CN1CCCN(C(=O)c2ccc3n2Cc2ccccc2N(C(=O)c2ccc(-c4cccc5ccccc45)cc2Cl)C3)CC1` [Example 71, {10-[2-Chloro-4-(1-naphthyl)benzoyl]-10,11-dihydro-5H-pyrrolo[2,1-c][1,4]benzodiazepin-3-yl}(4-methyl-1,4-diazepan-1-yl)methanone]: the inhibition at 0.1 µM came out at 4%.

On to `COc1ccccc1-c1ccc(C(=O)N2Cc3ccc(C(=O)NCCCN(C)C)n3Cc3ccccc32)cc1C` [Example 72, N-[3-(Dimethylamino)propyl]-10-[(2′-methoxy-2-methyl[1,1′-biphenyl]-4-yl)carbonyl]-10,11-dihydro-5H-pyrrolo[2,1-c][1,4]benzodiazepine-3-carboxamide], for which the inhibition at 0.1 µM turned out to be 8%.

For `Cc1ccccc1-c1ccc(C(=O)N2Cc3ccc(C(=O)NCCCN(C)C)n3Cc3ccccc32)cc1C` [Example 73, N-[3-(Dimethylamino)propyl]-10-[(2,2′-dimethyl[1,1′-biphenyl]-4-yl)carbonyl]-10,11-dihydro-5H-pyrrolo[2,1-c][1,4]benzodiazepine-3-carboxamide], the inhibition at 0.1 µM worked out at 46%.

(Values after US7109193B2, “Tricyclic diazepines tocolytic oxytocin receptor antagonists” (Wyeth, priority 2001, dated 2006).)
